The values that follow are results of earlier work, collected in US7550162B2, “Labiatae herb extracts and hop extracts for extending the color life and inhibiting the growth of microorganisms in fresh meat, fish and poultry” (Kalsec Incorporated, priority 2001, dated 2009).

One data set deals with Gram-positive organisms. Conditions: value also given in ppm.
In a further data set the test system is Gram positive organisms. Conditions: in culture.
A further data set relates to Listeria. Conditions: soy broth.

In brackets after ≈: the same amount, converted by molar mass. Like-named read-outs stand apart in the source and are kept apart here.

Take `CC(C)=CCC1=C(O)C(C(=O)CC(C)C)=C(O)C(CC=C(C)C)(CC=C(C)C)C1=O` [Lupulone (beta acids), Lupulone]: in the data set on Gram-positive organisms, the Minimum inhibitory concentration was 1 µg/mL (≈ 2.41 µM). In addition, the MIC in the data set on Gram positive organisms is 1-10 ppm. On to `CC(C)CCC(=O)C1(O)C(O)=C(C(=O)CC(C)C)C(=O)C1CCC(C)C` (centres unmarked) [Tetrahydroisohumulone, tetrahydroisohumulone], for which the “concentration inhibiting Listeria” value in the data set on Listeria is 6-18 ppm.

`CC(C)CCC1=C(O)C(C(=O)C(C)C)=C(O)C(CCC(C)C)(CCC(C)C)C1=O` [hexahydrocolulupone, hexahydrocolupulone]: in the data set with Listeria, the “concentration inhibiting Listeria” value is listed as 0.4 ppm. Regarding `CC(C)=CCC1=C(O)C(C(=O)CC(C)C)=C(O)C1O` (centres unmarked) [humulinic acid], in the data set with Gram-positive organisms, the Minimum inhibitory concentration is 250 µg/mL (≈ 939 µM).

In the case of `CC(C)=CCC(=O)C1(O)C(O)=C(C(=O)CC(C)C)C(=O)C1CC=C(C)C` (centres unmarked) [isohumulone], the Minimum inhibitory concentration in the data set with Gram-positive organisms is 25 µg/mL (≈ 69 µM). Further, the relative activity is 226 in the data set with beer spoilage organisms (pH 3.8) and 42 in the data set with beer spoilage organisms (pH 4.6).
